One series deals with Laodel phax striatellus. The series is described as follows: Control effect against Laodel phax striatellus (rice seedling spray). Format: in vivo. As to conditions: Concentration 500 ppm; method of Test Example 5. The source says: Control Effect Against Laodel phax striatellus
Test compounds, which had been diluted to designated concentrations by the addition of a 50% aqueous acetone solution (Tween 20, 0.05%), were spread over four rice seedlings (7 days after sowing) sowed in a plastic pot by means of a spray gun, followed by air drying. Thereafter, this pot was covered by a plastic cylinder, and ten larvae at the second instar of Laodel phax striatellus were released in the pot. The pot was then lidded, and the larvae were reared in a chamber at a constant temperature (25° C.).

The next series relates to Plutella xylostella. Nature of the series: Pesticidal effect against Plutella xylostella (cabbage leaf disk spray). Format: in vivo. The settings on record: Concentration 200 ppm; method of Test Example 1. The text has this: Pesticidal Effect Against Plutella xylostella
A cabbage leaf disk having a diameter of 5 cm was placed in a plastic cup. Test compounds, which had been diluted to designated concentrations by the addition of a 50% aqueous acetone solution (Tween 20, 0.05%), were spread over the cabbage leaf disk by means of a spray gun, and the cabbage leaf disk was then air dried. Five larvae at the second instar of Plutella xylostella were released in the cup. The cup was then lidded, and the larvae were reared in a chamber at a constant temperature (25° C.).

In another series the test system is Tetranychus cinnabarinus. Nature of the series: Miticidal effect against Tetranychus cinnabarinus (kidney leaf disk, eggs/larvae/nymphs). The class given is in vivo. The settings on record: Concentration 500 ppm; method of Test Example 4. How it is done:
Miticidal Effect Against Tetranychus cinnabarinus
A kidney leaf disk having a diameter of 2 cm was placed on agar. Seven female adult mites of Tetranychus cinnabarinus were released on the kidney leaf disk. The female adult mites were allowed to oviposit in a chamber kept at a constant temperature (25° C.) for 24 hr. The female adult mites were then removed from the kidney leaf disk. Test compounds, which had been diluted to designated concentrations by the addition of a 50% aqueous acetone solution (Tween 20, 0.05%), were spread over the leaf disk by means of a spray gun, and the leaf disk was then air dried. Thereafter, the leaf disk was stored in a constant-temperature chamber of 25° C. […] The sum of the unhatching rate of eggs and the death rate of larva ticks/nymphs was determined as the total death rate.

The next series concerns Myzus persicae. Nature of the series: Pesticidal effect against Myzus persicae (cabbage leaf disk spray). The settings on record: Concentration 500 ppm; method of Test Example 3. The class given is in vivo. The source says:
Pesticidal Effect Against Myzus persicae
A cabbage leaf disk having a diameter of 2.8 cm was placed in a plastic schale. Test compounds, which had been diluted to designated concentrations by the addition of a 50% aqueous acetone solution (Tween 20, 0.05%), were spread over the cabbage leaf disk by means of a spray gun, and the cabbage leaf disk was then air dried. Thereafter, ten larvae at the first instar of Myzus persicae were released in the schale. The schale was then lidded, and the larvae were reared in a chamber at a constant temperature (25° C.).

A further series relates to Spodoptera litura. The series is described as follows: Pesticidal effect against Spodoptera litura (cabbage leaf disk spray). The settings on record: Concentration 200 ppm; method of Test Example 2. Format: in vivo. The source says:
Pesticidal Effect Against Spodoptera litura
A cabbage leaf disk having a diameter of 5 cm was placed in a plastic cup. Test compounds, which had been diluted to designated concentrations by the addition of a 50% aqueous acetone solution (Tween 20, 0.05%), were spread over the cabbage leaf disk by means of a spray gun, and the cabbage leaf disk was then air dried. Five larvae at the third instar of Spodoptera litura were released in the cup. The cup was then lidded, and the larvae were reared in a chamber at a constant temperature (25° C.).

Structures are written as SMILES.

In the case of `CC(=O)Oc1c(C)c(C)nc2ccc(Oc3ccc(Cl)cc3)c(Cl)c12` [Compound No. 2, 4-Acetoxy-5-chloro-6-(4-chlorophenoxy)-2,3-dimethyl-quinoline], the melting point fell in the range of 167 to 169 °C.

For `CC(=O)Oc1c(C)c(C)nc2cc(Cl)c(Oc3ccc(Cl)cc3)cc12` [Compound No. 22, 4-acetoxy-7-chloro-6-(4-chlorophenoxy)-2,3-dimethyl-quinoline], the melting point was 160 to 162 °C.

For `COc1ccc2nc(C)c(C)c(OC(C)=O)c2c1` [JP 2633377 Compund No. 46], in the series on Laodel phax striatellus, the “Death rate, % Laodelphax striatellus” value is reported as 0%. For the same compound, the “Death rate, % Plutella xylostella” value in the series with Plutella xylostella worked out at 0%. Also, in the series with Tetranychus cinnabarinus, the “Death rate, % Tetranychus cinnabarinus” value was determined as 0%. In addition, the “Death rate, % Myzus persicae” value in the series on Myzus persicae worked out at 0%. Besides, in the series on Spodoptera litura, the “Death rate, % Spodoptera litura” value came to 10%.

For the compound `CC(=O)Oc1c(C)c(C)nc2ccc(Oc3ccccc3)cc12` [WO 98055460 Compund No. 136], the “Death rate, % Laodelphax striatellus” value with Laodel phax striatellus was found to be 0%. The “Death rate, % Plutella xylostella” value in the series on Plutella xylostella worked out at 0%. In addition, the “Death rate, % Tetranychus cinnabarinus” value with Tetranychus cinnabarinus was 0%. Further, the “Death rate, % Myzus persicae” value in the series on Myzus persicae is 0%. In addition, in the series with Spodoptera litura, the “Death rate, % Spodoptera litura” value was found to be 0%.

In general, melting point refers to the temperature of the solid-liquid transition.

Source of the values: patent US7880006B2, “Quinoline derivatives and insecticide comprising thereof as active ingredient” (Meiji Seika Kaisha, Ltd., priority 2004, dated 2011).
